In US9617538B2, “Heptamer-type small guide nucleic acids inducing apoptosis of human leukemia cells” (NIIGATA UNIVERSITY OF PHARMACY AND APPLIED LIFE SCIENCE, priority 2011, dated 2017):
{P} = phosphate

Columns and labels:
[1] = tested on: human leukemia cell line HL60; assay: MTT assay, HL60; assay type: cell-based; conditions: sgRNA 1 μM, no delivery reagent, 72 hours (3 days), vs sgRNA non-administered group
Description: (§1) Each sgRNA (final concentration 1 μM) was added to a 96-well culture plate containing human cancer cell lines (1,000 cells/100 μl medium), without using a reagent for the delivery of the sgRNA into the cells. The cells were then cultured in a 37° C. CO2 incubator. […] Leukemia cells HL60, and myeloma cells KMM1 and RPMI-8226 were used as the human cancer cell lines, and the viable cell count was compared with that of an sgRNA non-administered group. As controls, each sgRNA was introduced to normal cells HEK293, and the same MTT assay was performed. • (1-3) Flow Cytometry Experiment

[2] = tested on: human myeloma cell line RPMI-8226; assay: MTT assay, RPMI-8226; assay type: cell-based; conditions: sgRNA 1 μM, no delivery reagent, 72 hours (3 days), vs sgRNA non-administered group
Description: as §1

[3] = tested on: human myeloma cell line KMM1; assay: MTT assay, KMM1; assay type: cell-based; conditions: sgRNA 1 μM, no delivery reagent, 72 hours (3 days), vs sgRNA non-administered group
Description: as §1

[4] = tested on: human leukemia cells HL60; assay: Mouse xenograft experiment; assay type: in vivo, immunodeficient nude mice; conditions: HL60 subcutaneous xenograft; sgRNA 100 μM, 10 μl at transplantation site once daily for 5 days; difference of median survival time vs non-administered or ineffective-sgRNA group
Description: 2×10^6 human leukemia cells HL60 were subcutaneously transplanted into immunodeficient nude mice with an extracellular matrix. Each heptamer-type sgRNA (100 μM) was continuously administered to the transplantation site in a dose of 10 μl, once each day for 5 days, and the tumor volume was measured every day. The mice were euthanized upon the tumor volume reaching 1,500 mm^3. The experiment was conducted with groups of 6 to 8 mice, and the difference between the median value of the survival time of each sgRNA administered group and the median value of the survival time of the non-administered group (or a group administered with the ineffective heptamer-type sgRNA) was calculated as the extended lifetime due to the heptamer-type sgRNA. • (2) Results • (2-1) MTT Assay

| Substance | MTT assay (Percentage reduction of viable cells) HL60 [1] | MTT assay (Percentage reduction of viable cells) RPMI [2] | MTT assay (Percentage reduction of viable cells) KMM1 [3] | Mouse xenograft experiment (Extended lifetime) [4] |
| --- | --- | --- | --- | --- |
| Hep1(HAGE): heptamer-type sgRNA 5′-UCUUUCC-3′, phosphorylated at the 5′ and 3′ ends, 2′-O-methylated (all 2'-O-methyl, 5' {P}, 3' {P}, backbone not given here) | 91% | 5% | 61% | – |
| Hep1(MYC): heptamer-type sgRNA 5′-CAGCUCG-3′, phosphorylated at the 5′ and 3′ ends, 2′-O-methylated (all 2'-O-methyl, 5' {P}, 3' {P}, backbone not given here) | 90% | 16% | 56% | – |
| Hep1(bcl-2): heptamer-type sgRNA 5′-GGGCCAG-3′, phosphorylated at the 5′ and 3′ ends, 2′-O-methylated (all 2'-O-methyl, 5' {P}, 3' {P}, backbone not given here) | 88% | 18% | 0% | (+22 days) |
| Hep2(HAGE): heptamer-type sgRNA 5′-UAUAUUU-3′, phosphorylated at the 5′ and 3′ ends, 2′-O-methylated (all 2'-O-methyl, 5' {P}, 3' {P}, backbone not given here) | 94% | 5% | 72% | – |
| Hep2(PKCb): heptamer-type sgRNA 5′-CCGGGGC-3′, phosphorylated at the 5′ and 3′ ends, 2′-O-methylated (all 2'-O-methyl, 5' {P}, 3' {P}, backbone not given here) | 93% | 75% | 48% | – |
| Hep2(bcl-2): heptamer-type sgRNA 5′-GGGGGCG-3′, phosphorylated at the 5′ and 3′ ends, 2′-O-methylated (all 2'-O-methyl, 5' {P}, 3' {P}, backbone not given here) | 99% | 69% | 24% | (+19 days) |
| Hep3(MYC): heptamer-type sgRNA 5′-GCAGCUC-3′, phosphorylated at the 5′ and 3′ ends, 2′-O-methylated (5' {P}, 3' {P}, sugars by position and backbone not given here; 2'-O-methylated) | 90% | 2% | 67% | – |
| Hep5(IRF4): heptamer-type sgRNA 5′-GGGUCCU-3′, phosphorylated at the 5′ and 3′ ends, 2′-O-methylated (5' {P}, 3' {P}, sugars by position and backbone not given here; 2'-O-methylated) | 86% | 6% | 69% | – |
| Hep5(MYC): heptamer-type sgRNA 5′-GCUGCUG-3′, phosphorylated at the 5′ and 3′ ends, 2′-O-methylated (5' {P}, 3' {P}, sugars by position and backbone not given here; 2'-O-methylated) | 86% | 0% | 72% | – |
| Hep5(PRAME): heptamer-type sgRNA 5′-GCUCUGC-3′, phosphorylated at the 5′ and 3′ ends, 2′-O-methylated (5' {P}, 3' {P}, sugars by position and backbone not given here; 2'-O-methylated) | 94% | 54% | 17% | – |
| Hep6(PRAME): heptamer-type sgRNA 5′-UCCAGGU-3′, phosphorylated at the 5′ and 3′ ends, 2′-O-methylated (all 2'-O-methyl, 5' {P}, 3' {P}, backbone not given here) | 95% | 10% | 15% | – |
| Hep7(WT1): heptamer-type sgRNA 5′-CUGCUUU-3′, phosphorylated at the 5′ and 3′ ends, 2′-O-methylated (5' {P}, 3' {P}, sugars by position and backbone not given here; 2'-O-methylated) | 98% | 46% | 24% | – |
| Hep8(FGFR3): heptamer-type sgRNA 5′-AUCUUCA-3′, phosphorylated at the 5′ and 3′ ends, 2′-O-methylated (all 2'-O-methyl, 5' {P}, 3' {P}, backbone not given here) | 87% | 76% | 78% | (+10 days) |
| Hep9(FGFR3): heptamer-type sgRNA 5′-CACCAGC-3′, phosphorylated at the 5′ and 3′ ends, 2′-O-methylated (all 2'-O-methyl, 5' {P}, 3' {P}, backbone not given here) | 95% | 76% | 79% | (+6 days) |
| Hep(YW): heptamer-type sgRNA 5′-GCAUGCG-3′, phosphorylated at the 5′ and 3′ ends, 2′-O-methylated (all 2'-O-methyl, 5' {P}, 3' {P}, backbone not given here) | 96% | 0% | 59% | – |
